# Patent US20110172193A1, “PRO-DRUGS OF (E)-7-(3-(2-AMINO-1-FLUOROETHYLIDENE)PIPERIDIN-1-YL)-1-CYCLOPROPYL-6-FLUORO-8-METHOXY-4-OXO-1,4-DIHYDROQUINOLINE-3-CARBOXYLIC ACID” (priority 2010, published 2011)
# Where two headings read alike, the source gives them in different places.
# Tests used:
# [1] = Clarity of test compound solutions at […] (aqueous solubility); details: for solubility at 24 h: 50 mM citrate buffer, pH 4, aqueous buffer, thermodynamic from solid; for Aqueous Solubility pH~7 (visual clarity): […] active-form equivalents, pH 7 (50 mM phosphate), after 24 hours
# Protocol: A 50-mg/mL solution of a compound of formula (I) or a compound of formula (II) in H2O was titrated with 0.1 M NaOH until pH reached 5.7-6.1. Any solid that precipitated was filtered. The remaining solutions or phase-separated oil/H2O mixtures were freeze-dried to produce zwitterions as fluffy solids.
# The aqueous solubility of Compounds #14, #15 and #16 were determined by a modified procedure. In these cases, the samples were targeted at a pH of 4 and 7 and were measured exclusively using 100 mM phosphate buffers. For both pH's, measured samples were initially prepared at ˜3 mg/ml and ˜10 mg/ml concentrations and for samples that dissolved rapidly, additional compound was added to the solution until saturated solutions were obtained.
# [2] = In vitro bioconversion of pro-drug to parent drug in human blood and plasma; format: in vitro ADME; details: for Peak Area of pro-drug: 37° C.; for Conversion to the parent compound (summary in words): human whole blood and plasma
# Protocol: Compounds #1, #4, #6, #15, and #16, as well as the parent drug [(E)-7-(3-(2-amino-1-fluoroethylidene)piperidin-1-yl)-1-cyclopropyl-6-fluoro-8-methoxy-4-oxo-1,4-dihydroquinoline-3-carboxylic acid] (the compound of formula (M)) were dissolved to 1 mg/mL, and diluted to 20 ng/mL in fresh, chilled (4° C.) human or mouse whole blood or plasma, or kidney and liver extract (prepared from the respective fresh mouse organs as described below). Compound concentrations were normalized to parent drug content by multiplying by a ratio of the relative molecular weights. Time 0 (minute) samples were prepared by immediately diluting with an equal volume of acetonitrile, vortexing, and transferring the samples to ice. For additional time points, samples were placed in an incubator (Tables 4 and 5), or in a heating block (Tables 6-12) at 37° C. for the indicated time, then immediately vortexed with an equal volume of acetonitrile and placed on ice. Samples were centrifuged and further diluted with an equal volume of water to a final concentration of 25% acetonitrile prior to analysis by HPLC; diluted samples were retained in the cooled (4° C.) HPLC sample injection chamber pending injection.
# Representative compounds of the present invention and the parent compound were analyzed by reversed-phase HPLC using an Agilent 1100 system. Samples were injected onto a Zorbax SB-C18 column (3.5 μM, 4.6×150 mm) with a guard cartridge, and developed on a gradient of 15% aqueous acetonitrile in 0.1% trifluoroacetic acid to 85% aqueous acetonitrile in 0.1% trifluoroacetic acid over 10 minutes. The solvent flow rate was 1 mL/min, and the column temperature was 40° C. Compound and parent peak identification was by diode array detection, monitored at 300 nm Conversion of the compounds (prodrugs) to parent drug was estimated by peak areas (A300 nm, mAU) of the respective agents.
# For studies with Compounds #1, #4 and #6 (with results as listed in Tables 8, 9 and 10), fresh human whole blood and plasma samples were purchased from BioChemed Services, shipped in Styrofoam coolers maintained with frozen cold packs, and used within 48 hours of receipt. For studies with Compounds #15 and #16 (with results as listed in Tables 11 and 12), blood was drawn from volunteers and whole blood samples and isolated plasma prepared and immediately placed on ice. Whole blood and plasma samples were maintained at 4° C. and used within approximately 30 hours.
# [3] = In vitro bioconversion of pro-drug to parent drug in mouse blood, plasma, liver and kidney extract; format: in vitro ADME; details: for Peak Area of pro-drug: 37° C. incubator; for Conversion to the parent compound (summary in words): mouse whole blood, liver/kidney extracts, plasma
# Protocol: Compound concentrations were normalized to parent drug content by multiplying by a ratio of the relative molecular weights. Time 0 (minute) samples were prepared by immediately diluting with an equal volume of acetonitrile, vortexing, and transferring the samples to ice. […] Representative compounds of the present invention and the parent compound were analyzed by reversed-phase HPLC using an Agilent 1100 system. […] The solvent flow rate was 1 mL/min, and the column temperature was 40° C. Compound and parent peak identification was by diode array detection, monitored at 300 nm Conversion of the compounds (prodrugs) to parent drug was estimated by peak areas (A300 nm, mAU) of the respective agents. Mouse whole blood and plasma were collected from Swiss Webster mice, and stored at 4° C. until use (within 48 hours). […] For these experiments, fresh whole mouse livers or kidneys were homogenized for approximately 30 seconds (Omni-Tip™ disposable homogenizer tip) in 1 mL sterile saline and immediately stored on ice. Crude extracts (non-centrifuged) were incubated with the test compound or parent (20 μg/mL) and processed as described above.
# [4] = test system: Staphylococcus aureus (OC8525), a methicillin-resistant strain (MRSA); test: In vivo efficacy in a mouse systemic infection model; details: for ED50: Staphylococcus aureus, 72 h, Swiss Webster mice infected i.p. with MRSA, 3 day survival, normalized to parent content
# Protocol: Female Swiss Webster mice weighing between 20-25 g were infected intraperitoneally with approximately 5×10^5 colony forming units (CFU) Staphylococcus aureus (OC8525), a methicillin-resistant strain (MRSA), in 7% mucin. One hour later, the animals were given the test compound intravenously or orally in a dose volume of 0.2 mL. Each animal test group consisted of eight animals. The test compounds were prepared immediately before dosing in 5% dextrose in water (D5W) and diluted further in D5W for i.v. and p.o. administration. The mice were observed over a three day period and ED50 values were calculated from the resulting % survival curves (see Table 13, below). The measured ED50 values were normalized to the content of (E)-7-(3-(2-amino-1-fluoroethylidene)piperidin-1-yl)-1-cyclopropyl-6-fluoro-8-methoxy-4-oxo-1,4-dihydroquinoline-3-carboxylic acid. For some compounds, in vivo efficacy was determined by testing a group of eight mice at a single dose level only. In these cases, the data presented in Table 13, below are reported as percent survival at the designated dose.
# [5] = Aqueous solubility, modified procedure (saturated solutions, RP-HPLC); format: physicochemical; details: thermodynamic from solid, 100 mM phosphate buffer
# [6] = fresh human blood (purchased), 0.0 min
# [7] = fresh human plasma (purchased), 0.0 min
# [8] = fresh human plasma (purchased), 5.0 min
# [9] = fresh human plasma (purchased), 15.0 min
# [10] = fresh human plasma (purchased), 30.0 min
# [11] = homogenized mouse kidney, 0 min
# [12] = homogenized mouse kidney, 5 min
# [13] = homogenized mouse kidney, 30 min
# [14] = homogenized mouse liver, 30 min
# [15] = oral dose 1 h later, read-out: ED50 p.o.
# [16] = iv, i.v. dose 1 h later, read-out: ED50 i.v.
solubility at 24 h [1] [µg/mL],Aqueous Solubility pH~7 (visual clarity) [1],"Peak Area of pro-drug [2, 6] [mAU]","Peak Area of pro-drug [2, 7] [mAU]","Peak Area of pro-drug [2, 8] [mAU]","Peak Area of pro-drug [2, 9] [mAU]","Peak Area of pro-drug [2, 10] [mAU]",Conversion to the parent compound (summary in words) [2],"Peak Area of pro-drug ([3]; fresh mouse plasma, 0 min) [mAU]","Peak Area of pro-drug ([3]; fresh mouse plasma, 5 min) [mAU]","Peak Area of pro-drug ([3]; fresh mouse plasma, 30 min) [mAU]","Peak Area of pro-drug [3, 11] [mAU]","Peak Area of pro-drug [3, 12] [mAU]","Peak Area of pro-drug [3, 13] [mAU]","Peak Area of pro-drug ([3]; homogenized mouse liver, 0 min) [mAU]","Peak Area of pro-drug ([3]; homogenized mouse liver, 5 min) [mAU]","Peak Area of pro-drug [3, 14] [mAU]",Conversion to the parent compound (summary in words) [3],Structure (SMILES),"ED50 [4, 15] [mg/kg]","ED50 [4, 16] [mg/kg]",also measured
< 3300,No,365,401,386,369,371,converted to the parent compound,298,296,286,222,152,41,235,171,51,converted to the parent compound,"COc1c(N2CCC/C(=C(\F)CNC(=O)[C@@H](N)C(C)C)C2)c(F)cc2c(=O)c(C(=O)O)cn(C3CC3)c12.Cl [Compound 1, 7-{3-[2-((2S)-2-Amino-3-methyl-butyrylamino)-1-fluoro-ethylidene]-piperidin-1-yl}-1-cyclopropyl-6-fluoro-8-methoxy-4-oxo-1,4-dihydro-quinoline-3-carboxylic acid hydrochloride]",9.9,1.3,"Peak Area of pro-drug ([2]; fresh human blood (purchased), 3.0 min): 339 mAU; Peak Area of pro-drug ([2]; fresh human blood (purchased), 5.5 min): 339 mAU; Peak Area of pro-drug ([2]; fresh human blood (purchased), 8.0 min): 328 mAU; Peak Area of pro-drug ([2]; fresh human blood (purchased), 10.5 min): 289 mAU; Peak Area of pro-drug ([2]; fresh human blood (purchased), 15.5 min): 256 mAU"
> 3300,No,401,442,383,339,268,converted to the parent compound,–,–,–,–,–,–,–,–,–,converted to the parent compound,"COc1c(N2CCC/C(=C(\F)CNC(=O)[C@H](C)N)C2)c(F)cc2c(=O)c(C(=O)O)cn(C3CC3)c12.Cl [Compound 4, 7-{3-[2-((2S)-2-Amino-propionylamino)-1-fluoro-ethylidene]-piperidin-1-yl}-1-cyclopropyl-6-fluoro-8-methoxy-4-oxo-1,4-dihydro-quinoline-3-carboxylic acid hydrochloride]",19.8,0.7,"Peak Area of pro-drug ([2]; fresh human blood (purchased), 4.0 min): 205 mAU; Peak Area of pro-drug ([2]; fresh human blood (purchased), 6.5 min): 123 mAU; Peak Area of pro-drug ([2]; fresh human blood (purchased), 9.0 min): 79 mAU; Peak Area of pro-drug ([2]; fresh human blood (purchased), 11.5 min): 84 mAU; Peak Area of pro-drug ([2]; fresh human blood (purchased), 16.5 min): 68 mAU"
< 3300,No,369,393,386,399,393,converted to the parent compound,363,329,281,219,72,11,254,143,34,converted to the parent compound,"COc1c(N2CCC/C(=C(\F)CNC(=O)CN)C2)c(F)cc2c(=O)c(C(=O)O)cn(C3CC3)c12.Cl [Compound 6, 7-{3-[2-(2-Amino-acetylamino)-1-fluoro-ethylidene]-piperidin-1-yl}-1-cyclopropyl-6-fluoro-8-methoxy-4-oxo-1,4-dihydro-quinoline-3-carboxylic acid hydrochloride]",> 17.6,0.6,"Peak Area of pro-drug ([2]; fresh human blood (purchased), 3.5 min): 290 mAU; Peak Area of pro-drug ([2]; fresh human blood (purchased), 6.0 min): 188 mAU; Peak Area of pro-drug ([2]; fresh human blood (purchased), 8.5 min): 159 mAU; Peak Area of pro-drug ([2]; fresh human blood (purchased), 11.0 min): 134 mAU; Peak Area of pro-drug ([2]; fresh human blood (purchased), 16.0 min): 95 mAU"
–,–,–,–,–,–,–,–,–,–,–,–,–,–,–,–,–,–,"COc1c(N2CCC/C(=C(\F)CNC(=O)[C@@H](N)CN(C)C)C2)c(F)cc2c(=O)c(C(=O)O)cn(C3CC3)c12.Cl.Cl [Compound 14, 7-{3-[2-((2S)-2-Amino-3-dimethylamino-propionylamino)-1-fluoro-ethylidene]-piperidin-1-yl}-1-cyclopropyl-6-fluoro-8-methoxy-4-oxo-1,4-dihydro-quinoline-3-carboxylic acid dihydrochloride]",–,–,"% Survival ([4]; i.v., at 2.0 mg/kg/day, mice): 12.5% at 2.0 mg/kg/day; solubility at 18 h ([5]; pH 4, aqueous buffer, read-out: Aqueous Solubility pH~4): 6890 µg/mL; solubility at 18 h ([5]; pH 7, aqueous buffer, read-out: Aqueous Solubility pH~7): > 3000 µg/mL"
